Experimental data published in ChEMBL document CHEMBL3621193, “New arylalkanones from Horsfieldia macrobotrys, effective antidiabetic agents concomitantly inhibiting α-glucosidase and free radicals” (Bioorg Med Chem Lett, 2015).

Columns and labels:
[1] = Inhibition of baker's yeast alpha-glucosidase type-1 using p-nitrophenyl-alpha-D-glucopyranoside as substrate preincubated for 30 mins followed by substrate addition measured after 20 mins by microplate reader analysis; set-up: species or system Saccharomyces cerevisiae
[2] = target: T1, Sucrase-isomaltase, intestinal (Rattus norvegicus, UniProt P23739); assay: Competitive inhibition of rat intestinal Sucrase using sucrose as substrate assessed as glucose release after 40 mins by Lineweaver-Burk plot analysis
T1 sequence (P23739 1-1013 limits assumed): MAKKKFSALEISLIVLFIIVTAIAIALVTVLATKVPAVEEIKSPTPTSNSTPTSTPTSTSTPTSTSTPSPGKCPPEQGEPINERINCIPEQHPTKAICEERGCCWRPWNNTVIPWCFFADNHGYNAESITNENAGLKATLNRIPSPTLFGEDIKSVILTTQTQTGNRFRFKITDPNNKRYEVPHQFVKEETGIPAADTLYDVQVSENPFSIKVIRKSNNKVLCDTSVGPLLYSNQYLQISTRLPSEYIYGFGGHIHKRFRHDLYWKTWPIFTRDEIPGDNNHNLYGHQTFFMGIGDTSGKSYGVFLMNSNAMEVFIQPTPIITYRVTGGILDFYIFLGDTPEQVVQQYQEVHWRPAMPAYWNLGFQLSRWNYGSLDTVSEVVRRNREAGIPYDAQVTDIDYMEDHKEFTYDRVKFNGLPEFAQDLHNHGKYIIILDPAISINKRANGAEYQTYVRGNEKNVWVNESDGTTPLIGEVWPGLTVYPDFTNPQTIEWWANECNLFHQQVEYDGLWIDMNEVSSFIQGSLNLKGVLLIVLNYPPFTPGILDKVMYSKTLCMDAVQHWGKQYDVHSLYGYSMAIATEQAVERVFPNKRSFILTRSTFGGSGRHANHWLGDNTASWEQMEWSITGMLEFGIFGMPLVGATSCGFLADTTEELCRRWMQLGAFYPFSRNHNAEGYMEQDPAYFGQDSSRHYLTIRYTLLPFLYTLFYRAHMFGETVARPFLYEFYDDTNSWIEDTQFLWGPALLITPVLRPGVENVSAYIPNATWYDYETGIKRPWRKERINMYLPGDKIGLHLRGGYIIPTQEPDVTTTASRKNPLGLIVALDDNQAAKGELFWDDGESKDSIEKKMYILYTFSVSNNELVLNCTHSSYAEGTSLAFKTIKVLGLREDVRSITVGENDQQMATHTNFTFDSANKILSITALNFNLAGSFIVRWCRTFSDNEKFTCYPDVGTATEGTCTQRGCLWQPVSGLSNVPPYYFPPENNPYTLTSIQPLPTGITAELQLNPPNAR
T1 sequence (P23739 1014-1841 limits assumed): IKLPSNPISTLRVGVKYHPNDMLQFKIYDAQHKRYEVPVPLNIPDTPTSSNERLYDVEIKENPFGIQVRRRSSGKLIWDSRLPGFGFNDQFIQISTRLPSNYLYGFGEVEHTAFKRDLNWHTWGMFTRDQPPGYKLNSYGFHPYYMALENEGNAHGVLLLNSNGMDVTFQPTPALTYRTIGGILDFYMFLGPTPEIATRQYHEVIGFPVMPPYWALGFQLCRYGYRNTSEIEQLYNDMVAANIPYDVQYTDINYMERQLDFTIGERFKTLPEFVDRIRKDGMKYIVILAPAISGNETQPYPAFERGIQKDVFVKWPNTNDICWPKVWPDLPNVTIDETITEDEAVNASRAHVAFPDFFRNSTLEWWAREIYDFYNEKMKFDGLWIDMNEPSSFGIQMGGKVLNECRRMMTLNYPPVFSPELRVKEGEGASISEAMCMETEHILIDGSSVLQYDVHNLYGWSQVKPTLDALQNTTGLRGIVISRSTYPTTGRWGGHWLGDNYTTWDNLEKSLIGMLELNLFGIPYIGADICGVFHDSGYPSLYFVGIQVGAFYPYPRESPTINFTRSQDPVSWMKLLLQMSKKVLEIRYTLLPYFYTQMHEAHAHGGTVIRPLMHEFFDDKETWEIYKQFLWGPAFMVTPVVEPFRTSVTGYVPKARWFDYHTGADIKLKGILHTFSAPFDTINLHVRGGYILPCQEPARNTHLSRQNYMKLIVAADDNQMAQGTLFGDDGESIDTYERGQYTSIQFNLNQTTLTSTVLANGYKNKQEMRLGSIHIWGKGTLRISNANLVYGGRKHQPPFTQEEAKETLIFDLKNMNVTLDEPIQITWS

[3] = target: T1, Sucrase-isomaltase, intestinal; assay: Non-competitive inhibition of rat intestinal Sucrase using sucrose as substrate assessed as glucose release after 40 mins by Lineweaver-Burk plot analysis
[4] = target: T1, Sucrase-isomaltase, intestinal; assay: Inhibition of rat intestinal Sucrase using sucrose as substrate assessed as glucose release after 40 mins by glucose oxidase method
[5] = Antioxidant activity assessed as DPPH radical scavenging activity incubated for 30 mins in dark condition by spectrophotometric analysis; format: physicochemical; settings: 0.5 h

Row | SMILES | IC50 ([1]; read-out: IC50) [µM] | Ki [2] [µM] | Ki [3] [µM] | IC50 ([4]; read-out: IC50) [µM] | SC50 [5] | IC50 [4] | IC50 [1]
1 | O=C(CCCCCCC[C@H](O)c1ccccc1)c1c(O)cc(O)cc1O | 22.6 | 1090 | 540 | 94.9 | 1.6 mM |  | 
2 | O=C(CCCCCCC[C@H](O)c1ccccc1)c1c(O)cc(O)c(C(CCc2ccccc2)c2ccc(O)cc2O)c1O (stereo partly drawn) | 5.65 | 3070 | 380 | 47.4 | 0.43 mM |  | 
3 | O=C1C[C@@H](c2ccccc2)Oc2c1c(O)cc(O)c2[C@@H]1O[C@H](CO)[C@@H](O)[C@H](O)[C@H]1O | 529 |  |  |  | 6.76 mM | Not Active | 
4 | C[C@H]1O[C@H](O[C@H]2[C@H](O)[C@@H](O)[C@@H](O[C@H]3[C@H](O)[C@@H](O)C(O)O[C@@H]3CO)O[C@@H]2CO)[C@H](O)[C@@H](O)[C@@H]1N[C@H]1C=C(CO)[C@@H](O)[C@H](O)[C@H]1O (stereo partly drawn) [ACARBOSE] | 103 |  |  |  | Not Active |  | 
5 | O=C1O[C@H]([C@@H](O)CO)C(O)=C1O [ASCORBIC ACID] |  |  |  |  | 2.45 mM | Not Active | Not Active
